According to patent US6599536B1, “Therapy of estrogen-associated disorders” (Novogen Research Pty Ltd, priority 1998, dated 2003):

Assays:
[1] = tested on: human estrogen receptor (hER); conditions: cited from earlier work
[2] = Plasma and urinary profiles of isoflavones after acute and chronic administration of isoflavone tablets (Promensil composition), HPLC
Procedure: The plasma and urinary profiles of isoflavones after acute and chronic administration of […] of isoflavones (genistein […], daidzein 0.5 mg, biochanin […], and formononetin 14 mg) in fourteen subjects was analysed. The composition corresponds to the Promensil product (Registered Trade Mark, Novogen Research Pty Ltd, Australia). Venous plasma and urine were collected at intervals for 24 h after which subjects commenced taking two tablets each day for two weeks and repeated plasma samples and urine were collected for a 48 h period after the last does. Plasma and urine isoflavones were assayed by HPLC.

[3] = tested on: cancer; conditions: cited from earlier work

COc1ccc(-c2coc3cc(O)cc(O)c3c2=O)cc1 [biochanin]
binding affinity for the hER compared to daidzein [1]: lower binding affinity
estrogenic potency relative to daidzein [1]: about the same estrogenic potency as daidzein
detectability in plasma and urine ([2]; in vivo): remained detectable in both plasma and urine at all times

O=c1c(-c2ccc(O)cc2)coc2cc(O)ccc12 [daidzein]
anti-cancer actions [3]: virtually none
plasma concentrations relative to the methylated precursors ([2]; in vivo): much higher concentrations than their methylated precursors

COc1ccc(-c2coc3cc(O)ccc3c2=O)cc1 [formononetin]
detectability in plasma and urine ([2]; in vivo): remained detectable in both plasma and urine at all times

O=c1c(-c2ccc(O)cc2)coc2cc(O)cc(O)c12 [genistein]
anti-cancer actions [3]: potent anti-cancer actions
estrogenic potency relative to daidzein [1]: approximately ten fold more estrogenic than daidzein
plasma concentrations relative to the methylated precursors ([2]; after acute dosing of the isoflavone tablets): much higher concentrations than their methylated precursors
